Results published in patent US20170000133A1, “BENZOXABOROLE FUNGICIDES” (SYNGENTA PARTICIPATIONS AG, priority 2013, published 2017).

Columns and labels:
[1] = system: Mycosphaerella arachidis (Cercospora arachidicola); assay: Mycosphaerella arachidis (Cercospora arachidicola) / liquid culture (early leaf spot); assay type: cell-based; settings: PDB potato dextrose broth, 24° C., 4-5 days after application, read-out: disease control (inhibition of growth determined photometrically)
Summary of the method: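 Test compound, applied at 200 ppm from DMSO solution, was combined with spore-containing potato dextrose broth. Photometric growth inhibition was scored after 4-5 days at 24° C.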

[2] = system: Glomerella lagenarium (Colletotrichum lagenarium); assay: Glomerella lagenarium (Colletotrichum lagenarium) / liquid culture (anthracnose); assay type: cell-based; settings: Colletotrichum orbiculare, PDB potato dextrose broth, 24° C., 3-4 days after application, read-out: disease control (inhibition of growth measured photometrically)
Description: 11. Glomerella lagenarium (Colletotrichum lagenarium)/Liquid Culture (Anthracnose): Conidia of the fungus from cryogenic storage were directly mixed into nutrient broth (PDB potato dextrose broth). After placing a DMSO solution of test compound into a 96-well microtiter plate at an application rate of 200 ppm, the nutrient broth containing the fungal spores was added. The test plates were incubated at 24° C. and the inhibition of growth was measured photometrically 3-4 days after application.

[3] = system: Monographella nivalis (Microdochium nivale); assay: Monographella nivalis (Microdochium nivale) / liquid culture (foot rot cereals); assay type: cell-based; settings: PDB potato dextrose broth, 24° C., 4-5 days after application, read-out: disease control (inhibition of growth determined photometrically)
Gaeumannomyces graminis = Gaeumannomyces graminis / liquid culture (take-all of cereals); assay type: cell-based; settings: PDB potato dextrose broth, 24° C., 4-5 days after application, read-out: disease control (inhibition of growth determined photometrically)
Summary of the method: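 Growth inhibition measured photometrically 4–5 days post-application, following incubation at 24 °C. Test compound, applied from DMSO at 200 ppm, mixed with fungal mycelial fragments in potato dextrose broth.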

[4] = system: Mycosphaerella graminicola (Septoria tritici); assay: Mycosphaerella graminicola (Septoria tritici) / liquid culture (Septoria blotch); assay type: cell-based; settings: Zymoseptoria tritici, PDB potato dextrose broth, 24° C., 4-5 days after application, read-out: disease control (inhibition of growth determined photometrically)
Summary of the method: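 Growth inhibition was read photometrically 4-5 days after application, following incubation at 24° C of fungal conidia in potato dextrose broth over test compound (200 ppm, from DMSO solution) in microtiter plates.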

Plasmopara viticola = assay: whole plant or invertebrate; assay type: in vivo; settings: foliar, read-out: disease control
Pythium ultimum = Pythium ultimum / liquid culture (seedling damping off); assay type: cell-based; settings: Globisporangium ultimum; 200 ppm; potato dextrose broth, 24° C., 2-3 days after application; read-out: disease control (inhibition of growth determined photometrically)
[5] = system: Thanatephorus cucumeris (Rhizoctonia solani); assay: Thanatephorus cucumeris (Rhizoctonia solani) / liquid culture (foot rot, damping-off); assay type: cell-based; settings: PDB potato dextrose broth, 24° C., 3-4 days after application, read-out: disease control (inhibition of growth determined photometrically)
Summary of the method: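 Photometric growth-inhibition readout taken 3-4 days after application, with cultures incubated at 24 °C. Test compound was applied at 200 ppm from DMSO solution to R. solani mycelial fragments in PDB.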

Fusarium culmorum = assay: microbe, parasite or virus in culture; assay type: cell-based; settings: read-out: disease control (inhibition of growth determined visually)

O=C(OCC1CC1)c1ccc2c(c1)B(O)OC2 [Compound 328]
≥ 80%: inhibition at 200 ppm [1] | inhibition at 200 ppm [2] | inhibition at 200 ppm [3] | inhibition at 200 ppm (Gaeumannomyces graminis) | inhibition at 200 ppm [4] | pest or weed control at 200 ppm (Plasmopara viticola) | inhibition at 200 ppm (Pythium ultimum) | inhibition at 200 ppm [5]

C=CCOC(=O)c1ccc2c(c1)B(O)OC2 [Compound 340]
≥ 80%: inhibition at 200 ppm [1] | inhibition at 200 ppm [2] | inhibition at 200 ppm [3] | inhibition at 200 ppm (Gaeumannomyces graminis) | inhibition at 200 ppm [4] | pest or weed control at 200 ppm (Plasmopara viticola) | inhibition at 200 ppm (Pythium ultimum) | inhibition at 200 ppm [5]

O=C(OCc1ccc(C(F)(F)F)nc1)c1ccc2c(c1)B(O)OC2 [Compound 343]
≥ 80%: inhibition at 200 ppm [1] | inhibition at 200 ppm [2] | inhibition at 200 ppm [3] | inhibition at 200 ppm (Gaeumannomyces graminis) | inhibition at 200 ppm [4] | pest or weed control at 200 ppm (Plasmopara viticola) | inhibition at 200 ppm (Pythium ultimum) | inhibition at 200 ppm [5]

O=C(OCC(Cl)(Cl)Cl)c1cc2c(cc1F)COB2O [Compound 382]
≥ 80%: inhibition at 200 ppm [1] | inhibition at 200 ppm [2] | inhibition at 200 ppm [3] | inhibition at 200 ppm (Gaeumannomyces graminis) | inhibition at 200 ppm [4] | pest or weed control at 200 ppm (Plasmopara viticola) | inhibition at 200 ppm (Pythium ultimum) | inhibition at 200 ppm [5]

O=C(OCC1CC1)c1cc2c(cc1F)COB2O [Compound 388]
≥ 80%: inhibition at 200 ppm [1] | inhibition at 200 ppm [2] | inhibition at 200 ppm [3] | inhibition at 200 ppm (Gaeumannomyces graminis) | inhibition at 200 ppm [4] | pest or weed control at 200 ppm (Plasmopara viticola) | inhibition at 200 ppm (Pythium ultimum) | inhibition at 200 ppm [5]

O=C(OCc1cccc2ccccc12)c1cc2c(cc1F)COB2O [Compound 394]
≥ 80%: inhibition at 200 ppm [1] | inhibition at 200 ppm [2] | inhibition at 200 ppm [3] | inhibition at 200 ppm (Gaeumannomyces graminis) | inhibition at 200 ppm [4] | pest or weed control at 200 ppm (Plasmopara viticola) | inhibition at 200 ppm (Pythium ultimum) | inhibition at 200 ppm [5]

C=CCOC(=O)c1cc2c(cc1F)COB2O [Compound 403]
≥ 80%: inhibition at 200 ppm [1] | inhibition at 200 ppm [2] | inhibition at 200 ppm [3] | inhibition at 200 ppm (Gaeumannomyces graminis) | inhibition at 200 ppm [4] | pest or weed control at 200 ppm (Plasmopara viticola) | inhibition at 200 ppm (Pythium ultimum) | inhibition at 200 ppm [5]

O=C(OCCc1c(Cl)cccc1Cl)c1cc2c(cc1F)COB2O [Compound 433]
≥ 80%: inhibition at 200 ppm [3] | inhibition at 200 ppm (Gaeumannomyces graminis) | pest or weed control at 200 ppm (Plasmopara viticola) | inhibition at 200 ppm (Fusarium culmorum) | inhibition at 200 ppm [5]

O=C(OCc1ccsc1)c1cc2c(cc1Cl)COB2O [Compound 439]
≥ 80%: inhibition at 200 ppm [1] | inhibition at 200 ppm [2] | inhibition at 200 ppm [3] | inhibition at 200 ppm (Gaeumannomyces graminis) | inhibition at 200 ppm [4] | pest or weed control at 200 ppm (Plasmopara viticola) | inhibition at 200 ppm (Pythium ultimum) | inhibition at 200 ppm [5]
